Each structure is given as a SMILES string. Activity calls are given as the source filed them. No cut-off for these calls is given here.

The test has as its target Forkhead box protein O1 (Homo sapiens) (UniProt Q12778). The experiment in a line: Inhibition of FOXO1a nuclear export in PTEN-deficient cells. In kind it is cell-based.

Chain of Forkhead box protein O1 (Homo sapiens) (Q12778 whole entry): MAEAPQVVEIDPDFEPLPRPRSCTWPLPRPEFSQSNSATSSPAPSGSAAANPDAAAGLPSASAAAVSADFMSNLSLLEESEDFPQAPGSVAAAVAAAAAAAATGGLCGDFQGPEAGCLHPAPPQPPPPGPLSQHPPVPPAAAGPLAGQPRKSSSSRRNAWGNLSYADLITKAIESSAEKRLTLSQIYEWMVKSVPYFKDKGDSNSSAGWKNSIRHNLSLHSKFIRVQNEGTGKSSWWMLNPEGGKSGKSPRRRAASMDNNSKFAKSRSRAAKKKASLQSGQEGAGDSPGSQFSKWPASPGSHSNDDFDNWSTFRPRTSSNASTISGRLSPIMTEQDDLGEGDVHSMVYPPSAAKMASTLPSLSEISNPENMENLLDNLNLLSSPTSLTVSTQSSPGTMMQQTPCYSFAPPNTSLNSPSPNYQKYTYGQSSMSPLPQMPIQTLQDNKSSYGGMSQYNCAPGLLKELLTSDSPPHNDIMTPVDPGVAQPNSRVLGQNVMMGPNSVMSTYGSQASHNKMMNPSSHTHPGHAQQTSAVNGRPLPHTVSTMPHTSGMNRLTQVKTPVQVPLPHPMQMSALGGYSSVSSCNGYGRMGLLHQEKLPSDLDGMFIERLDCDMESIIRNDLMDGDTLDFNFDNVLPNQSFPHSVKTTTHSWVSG

As to `CNCCCOc1c(Br)cc(CCNC(=O)/C(Cc2ccc(OC)c(Br)c2)=N/O)cc1Br`, the result was inactive.

Source of the values: ChEMBL document CHEMBL1158737, “The psammaplysenes, specific inhibitors of FOXO1a nuclear export” (J Nat Prod, 2005).
